In patent publication US4492698A, “Diphenylbutyl-1-acylpiperazines” (priority 1980, dated 1985):
Where a name gives a salt, the structure may show the parent alone. Read-outs that look alike come from different tables or passages of the source.

Key:
[1] = test system: mice (NMRI); assay: writhing test (acetic acid), analgetic properties; type: in vivo; conditions: Mus musculus, sc, 20 min before acetic acid i.p.; female mice; read-out: ED50 (dose blocking the writhing behaviour in 50% of the animals)
Method: The writhing test is a frequently used test of analgetic properties (Witkin, L. B. et al., J. Pharmacol. Exp. Ther. 133, 400 (1961)). If acetic acid (0.5%, 15 ml/kg) is injected intraperitoneally in mice (NMRI) they will without exception develop a writhing behaviour characterized by stretching their hind legs. The drugs to be tested were administered subcutaneously to 6 female mice at each dose 20 min. before the injection of the acetic acid. After 10 min. The behaviour of the mice was studied in 5 min. The ED50 value is the dose blocking the writhing behaviour in 50% of the animals during the 5 min. study period.

[2] = test system: male NMRI mice; conditions: general statement on the test; cited from earlier work
[3] = test system: male NMRI mice; assay: isolation-induced aggressive behaviour; type: in vivo; conditions: Mus musculus, sc, read-out: ED50 (dose inhibiting aggressive behaviour among 50 percent of the pairs)
Description: Male mice subjected to prolonged isolation develop aggressive behaviour against each other when paired (Yen, C. Y. et al., Arch. Int. Pharmacodyn. 123, 179, (1959); Valzelli, L., Adv. Pharmacol. 5, 79 (1967)). […] The clinical correlation of this test indicates tranquillizing and anxiolytic activities as well as antiaggressive properties as such (Duncan, R. L. et al., J. Med. Chem. 13, 1 (1970)).
This type of aggression is interesting because it is known that this kind of emotional behaviour might be located in limbic structures in the brain (MacLean, P. D., Psychosom. Med. 11, 338 (1949)).
Every week male NMRI mice, weighing 20-22 g, were isolated in Makrolon cages for three weeks with diet and water ad libitum. A piece of cardboard was placed between the cages to prevent visual contact.
To test aggressiveness the mice were paired in a neutral area, a beaker (14 cm high and diameter 14 cm). A pair is considered aggressive if both the animals show clear signs of fighting within 5 min. This fighting is characterized by biting and vocalization. As soon as fighting is seen, the mice are separated and brought to their home cage. […] Animals showing no aggression are discarded. […] The test substance is administered s.c. (0.2-0.4 ml/20 g). The mice are paired 0.5 h after the injection for trials of 5 min. duration.
The ED50 -value (mg/kg) reported is the dose inhibiting aggressive behaviour among 50 percent of the pairs 0.5 hour after drug administration.

[4] = test system: male hooded Long-Evans rats; assay: spontaneous mouse-killing (muricide) by rats; type: in vivo, rat (hooded Long-Evans); conditions: for ED50: Rattus norvegicus, sc
Description: For the purpose of detecting new psychotropic substances with antiaggressive properties, pharmacologist have used several different models. One model used, the mouse-killing (muricide) by rats (Vogel, J. R. in Industrial Pharmacology, Vol. 2, Antidepressants, Stuart, F. and Lal, H., Ed., Futura Publishing Company, 1975, p. 99), is based on an existing interspecies aggression (Karli, P., Behaviour 10, 81 (1956)). This form of aggressive behaviour which is considered to be of predatory nature, is physiologically and topographically different from other forms of aggression (O'Boyle, M., Psychol. Bull. 81, 261 (1974)). Mousekilling is a spontaneous behaviour in some rat strains e.g. male hooded Long-Evans rats.
Male hooded Long-Evans rats placed in individual cages were used. By testing a number of rats, a colony of rats was obtained that killed a mouse whenever introduced into the rats' cage, by biting the mouse through the cervical spinal cord.
Each rat was tested for mouse-killing behaviour (killing a mouse within 5 minutes) prior to each experiment, thus serving as its own positive control. For each dose level 6 positive rats were selected and the test substance was administered by subcutaneous injection. Doses were selected to form a dose-response curve and the […] (ED50, mg/kg) was calculated by means of linear regression. The rats were tested at 1, and 2 hours after being injected subcutaneously. [drawing 9]

[5] = 0.5 hour after drug administration
[6] = 1 hr after injection, read-out: ED50, spontaneous mouse-killing, 1 hr
[7] = read-out: ED50, spontaneous mouse-killing, s.c., 2 hr after injection

SMILES	ED50 [1]	ED50 [3, 5]	ED50 [4, 6]	ED50 [4, 7]	also measured
CC(C)C(=O)N1CCN(CCCC(c2ccc(F)cc2)c2ccc(F)cc2)CC1 [Compound 2]	1.1 mg/kg	–	–	–	–
CN1C(=O)CN=C(c2ccccc2)c2cc(Cl)ccc21 [Diazepam]	–	–	–	–	activity on isolation-induced aggressive behaviour [2]: active
CN(C)CCCN1c2ccccc2Sc2ccc(Cl)cc21 [Chlorpromazine]	–	–	–	–	ED50 ([3]; 0.5 h): 1.4 mg/kg
CCC(=O)N1CCN(CCCC(c2ccc(F)cc2)c2ccc(F)cc2)CC1 [Compound 1, 1-Ethylcarbonyl-4-[4,4-(di-p-fluorophenyl)butyl]-piperazine hydrochloride]	0.5 mg/kg	2.8 mg/kg	1 mg/kg	1.8 mg/kg	–
CC(=O)N1CCN(CCCC(c2ccc(F)cc2)c2ccc(F)cc2)CC1 [B, 1-acetyl-4-[4,4-(di-fluorophenyl)butyl]piperazine]	–	10 mg/kg	> 10 mg/kg	> 10 mg/kg	pharmacological properties compared with compounds I ([4]; versus compounds I of the invention, in the tests of the application): inferior to the compounds I of the present invention
O=C(C1CC1)N1CCN(CCCC(c2ccc(F)cc2)c2ccc(F)cc2)CC1 [Compound 3]	0.8 mg/kg	1.4 mg/kg	2.6 mg/kg	3.7 mg/kg	–
CCC(=O)N1CC(C)N(CCC(c2ccccc2)c2ccccc2)CC1C (stereo not shown) [Compound A1]	4.2 mg/kg	–	–	–	–
CN(C)CCC=C1c2ccccc2CCc2ccccc21 [Amitriptyline]	–	5 mg/kg	> 10 mg/kg	6.4 mg/kg	–
